Laboratory results reported in patent US7262269B2, “Method for screening combinational bead library; ligands for cancer cells” (The Regents of University of California, priority 2001, dated 2007).

How the values were obtained:
[1] = system: non-small-cell lung cancer cell line, A549; experiment: cell-growth-on-bead assay, A549; assay type: cell-based, human; conditions: peptide resynthesized on beads, rescreened with A549 cells
Description: The cell-growth-on-bead assay includes the following steps. A one-bead-one-compound combinatorial library is prepared. The library is preferably synthesized using the “split synthesis” approach described in Lam et al., “A new type of synthetic peptide library,” 82-84. The compounds of the library may be small molecules, peptides, or other types of molecules. An example of a suitable library is a peptide library containing cXXXXXXc peptides, where “c” is D-cysteine which provides intramolecular cyclization by disulfide bonding, and “X” is any L, D, unnatural, or modified amino acid. A suitable solid phase support, such as beads or discs made of polystyrene, agarose, acrylamide, glass, plastic, or paramagnetic substances, is used. Polystyrene beads have been found satisfactory. A standard synthetic solid phase peptide synthesis method, such as fluorenylmethyoxycarbonyl (Fmoc) chemistry or t-butyloxycarbonyl (Boc) chemistry, is used. […]
The chemical structure of the compound (i.e. ligand) on each isolated positive bead 14 is then determined. If the combinatorial library used was a peptide library, then the amino acid sequence of the ligand is preferably determined with an automated protein sequencer, such as the Procise 494 (Applied Biosystems, Foster City, Calif.). Alternatively, the peptide can be released via a cleavable linker and the amino acid sequence determined by mass spectroscopy. […]

[2] = system: non-malignant bronchoepithelial cell line, HBE-1; experiment: cell-growth-on-bead assay, HBE-1; assay type: cell-based; conditions: HBE-1 cells
Description: The ratio of cells to beads is preferably about 10:1, but can range from about 1:1 to 100:1. The suspension of cells 10 and beads 12 is mixed gently for sufficient time to assure contact of beads 12 with suspended cells 10. The culture plates are incubated in a tissue culture incubator at about 4° C. to about 37° C., preferably 37° C., for a period of about 24 to about 72 hours. The suspension of cells 10 and beads 12 may be kept still or mixed, either continuously or intermittently, during the incubation period.
After the incubation period, beads 12 are observed under a dissecting microscope. […] These beads 14 (referred to as “positive” beads) are removed from the culture plates. A tetrazolium dye that stains live, but not dead, cells can be used to facilitate the identification and removal of the positive beads. If a dye is used, all of the beads are removed after the incubation period and resuspended in fresh medium in new culture plates. The dye is added. The plates are then incubated in a tissue culture incubator at 25° C. to 37° C. for about one to four hours. Live cells 10 convert the dye to a colored metabolite, which results in beads 14 with attached cells appearing colored, allowing them to be easily distinguished from beads 16 without attached cells, which appear colorless, as shown in FIG. 1E. Other dyes that stain live cells can also be used. […]

For cNGRGEQc, the “beads with this sequence exhibiting cell attachment and growth on their surfaces” value [1] was “Virtually all” and the “peptide beads on which cell growth was observed” value [2] was 10%.
